# Laboratory results published in US20190292167A1, “HETEROAROMATIC COMPOUNDS USEFUL FOR THE TREATMENT OF PROLIFERATIVE DISEASES” (Syros Pharmaceuticals, Inc., priority 2013, published 2019).
# Where a name gives a salt, the structure may show the parent alone.
# Columns and labels:
# [1] = tested on: Jurkat; assay: Inhibition of cell proliferation, CellTiter-Glo, 72 hour; assay type: cell-based; details: Homo sapiens, Jurkat, 72 h, Blood cancer cell line; 72 hour; read-out: Inhibition of Proliferation of Jurkat Cells
# Protocol: The following cancer cell lines were tested with the media conditions indicated: […]
# [2] = target: T1, CDK7 (Homo sapiens, UniProt P50613); assay: Adapta kinase assay (Life Technologies) against CDK7, co-factors cyclin H and MNAT1; assay type: biochemical; details: read-out: CDK7 Inhibition
# T1 construct: purchased Life Technologies (Adapta kinase assay service)
# T1 sequence (P50613 whole entry): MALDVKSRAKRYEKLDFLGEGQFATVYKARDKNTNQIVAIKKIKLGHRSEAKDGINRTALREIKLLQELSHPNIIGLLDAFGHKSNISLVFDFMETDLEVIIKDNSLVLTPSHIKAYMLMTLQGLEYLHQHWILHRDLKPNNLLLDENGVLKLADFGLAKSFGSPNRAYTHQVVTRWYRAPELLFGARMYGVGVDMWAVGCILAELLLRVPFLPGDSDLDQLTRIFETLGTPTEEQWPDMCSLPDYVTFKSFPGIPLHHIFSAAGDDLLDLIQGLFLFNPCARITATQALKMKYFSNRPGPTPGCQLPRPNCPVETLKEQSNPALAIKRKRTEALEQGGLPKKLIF
# T1 sequence (P51946 whole entry partner): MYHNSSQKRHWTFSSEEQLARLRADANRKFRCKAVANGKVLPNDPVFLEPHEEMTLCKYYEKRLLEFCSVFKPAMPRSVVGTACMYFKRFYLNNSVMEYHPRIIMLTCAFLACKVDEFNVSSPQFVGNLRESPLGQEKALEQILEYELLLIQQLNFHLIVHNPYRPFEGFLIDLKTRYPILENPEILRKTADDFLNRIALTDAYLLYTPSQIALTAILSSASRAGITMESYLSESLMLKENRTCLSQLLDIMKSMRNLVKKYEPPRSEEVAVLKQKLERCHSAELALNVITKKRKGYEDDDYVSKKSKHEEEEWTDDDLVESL
# T1 sequence (P51948 whole entry partner): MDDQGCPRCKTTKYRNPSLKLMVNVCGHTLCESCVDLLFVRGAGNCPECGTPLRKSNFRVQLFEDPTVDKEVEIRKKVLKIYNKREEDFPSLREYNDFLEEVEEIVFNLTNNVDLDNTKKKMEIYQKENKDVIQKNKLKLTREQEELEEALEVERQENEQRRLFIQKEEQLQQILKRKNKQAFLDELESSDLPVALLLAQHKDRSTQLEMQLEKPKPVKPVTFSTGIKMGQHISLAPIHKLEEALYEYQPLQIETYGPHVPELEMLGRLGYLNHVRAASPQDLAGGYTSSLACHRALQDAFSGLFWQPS
# Protocol: Compounds of the invention were assayed for activity against CDK7 at Life Technologies™ (Grand Island, N.Y.) using their commercially available Adapta® kinase assay services. […] Details of the assay, including the substrate used for CDK7 kinase, are available on the Life Technologies web site (http://www.lifetechnologies.com/us/en/homellife-science/drug-discovery/target-and-lead-identification-and-validation/kinasebiology/kinase-activity-assays.html).
# The co-factors used for the assay were cyclin H and MNAT1.
Structure (SMILES),IC50 [1],IC50 [2]
"CN(C)C/C=C/C(=O)Nc1ccc(C(=O)N2CCC(Nc3ncc(Cl)c(-c4cc[nH]n4)n3)CC2)cc1 [Compound 117, (E)-N-(4-(4-((5-chloro-4-(1H-pyrazol-3-yl)pyrimidin-2-yl)amino)piperidine-1-carbonyl)phenyl)-4-(dimethylamino)but-2-enamide]",> 5000 nM,> 1000 nM
"CN(C)C/C=C/C(=O)Nc1ccc(C(=O)N2CCC(Nc3ncc(Cl)c(-c4cccnc4)n3)CC2)cc1 [Compound 118, (E)-N-(4-(4-((5-chloro-4-(pyridin-3-yl)pyrimidin-2-yl)amino)piperidine-1-carbonyl)phenyl)-4-(dimethylamino)but-2-enamide]",500 to 5000 nM,100 to 1000 nM
"Cc1nc(C)c(-c2nc(NC3CCN(C(=O)c4ccc(NC(=O)/C=C/CN(C)C)cc4)CC3)ncc2Cl)s1 [Compound 119, (E)-N-(4-(4-((5-chloro-4-(2,4-dimethylthiazol-5-yl)pyrimidin-2-yl)amino)piperidine-1-carbonyl)phenyl)-4-(dimethylamino)but-2-enamide]",500 to 5000 nM,100 to 1000 nM
"Cc1noc(C)c1-c1nc(NC2CCN(C(=O)c3ccc(NC(=O)/C=C/CN(C)C)cc3)CC2)ncc1Cl [Compound 121, (E)-N-(4-(4-((5-chloro-4-(3,5-dimethylisoxazol-4-yl)pyrimidin-2-yl)amino)piperidine-1-carbonyl)phenyl)-4-(dimethylamino)but-2-enamide]",500 to 5000 nM,> 1000 nM
"Cc1[nH]c2ccccc2c1-c1nc(NC2CCN(C(=O)c3ccc(NC(=O)/C=C/CN(C)C)cc3)CC2)ncc1Cl [Compound 125, (E)-N-(4-(4-((5-chloro-4-(2-methyl-1H-indol-3-yl)pyrimidin-2-yl)amino)piperidine-1-carbonyl)phenyl)-4-(dimethylamino)but-2-enamide]",< 500 nM,< 100 nM
"CN(C)C/C=C/C(=O)Nc1ccc(C(=O)N2CCC(Nc3ncc(Cl)c(-c4c[nH]cn4)n3)CC2)cc1 [Compound 127, (E)-N-(4-(4-((5-chloro-4-(1H-imidazol-4-yl)pyrimidin-2-yl)amino)piperidine-1-carbonyl)phenyl)-4-(dimethylamino)but-2-enamide]",> 5000 nM,100 to 1000 nM
"CN(C)C/C=C/C(=O)Nc1ccc(C(=O)N[C@@H]2CC[C@H](Nc3ncc(Cl)c(-c4c[nH]c5ccccc45)n3)C2)cc1 [Compound 129, N-((1R,3S)-3-((5-chloro-4-(1H-indol-3-yl)pyrimidin-2-yl)amino)cyclopentyl)-4-((E)-4-(dimethylamino)but-2-enamido)benzamide]",< 500 nM,< 100 nM
"CN(C)C/C=C/C(=O)NCCC(=O)Nc1cccc(Nc2ncc(Cl)c(-c3c[nH]c4ccccc34)n2)c1 [Compound 131, (E)-N-(3-(3-(5-chloro-4-(1H-indol-3-yl)pyrimidin-2-ylamino)phenylamino)-3-oxopropyl)-4-(dimethylamino)but-2-enamide]",500 to 5000 nM,100 to 1000 nM
"CC(C)(CNC(=O)c1ccc(NC(=O)/C=C/CO)cc1)CNc1ncc(Cl)c(-c2c[nH]c3ccccc23)n1 [Compound 132, (E)-N-(3-(5-chloro-4-(1H-indol-3-yl)pyrimidin-2-ylamino)-2,2-dimethylpropyl)-4-(4-hydroxybut-2-enamido)benzamide]",> 5000 nM,> 1000 nM
"COc1ccc(Cn2c(-c3ccc(NC(=O)/C=C/CN(C)C)cc3)nc3cc(Nc4ncc(Cl)c(-c5c[nH]c6ccccc56)n4)ccc32)cc1 [Compound 133, (E)-N-(4-(5-(5-chloro-4-(1H-indol-3-yl)pyrimidin-2-ylamino)-1-(4-methoxybenzyl)-1H-benzo[d]imidazol-2-yl)phenyl)-4-(dimethylamino)but-2-enamide]",500 to 5000 nM,100 to 1000 nM
"CN(C)C/C=C/C(=O)NCC(=O)Nc1cccc(Nc2ncc(Cl)c(-c3c[nH]c4ccccc34)n2)c1 [Compound 137, (E)-N-(2-(3-(5-chloro-4-(1H-indol-3-yl)pyrimidin-2-ylamino)phenylamino)-2-oxoethyl)-4-(dimethylamino)but-2-enamide]",500 to 5000 nM,< 100 nM
"C=CC(=O)Nc1ccc(C(=O)NC2CC3(C2)CC(Nc2ncc(Cl)c(-c4c[nH]c5ccccc45)n2)C3)cc1 (stereo not shown) [Compound 138, 4-acrylamido-N-(6-((5-chloro-4-(1H-indol-3-yl)pyrimidin-2-yl)amino)spiro[3.3]heptan-2-yl)benzamide]",500 to 5000 nM,100 to 1000 nM
"CN(C)C/C=C/C(=O)Nc1cccc(CN2CCC(Nc3ncc(Cl)c(-c4c[nH]c5ccccc45)n3)CC2)c1 [Compound 141, (E)-N-[3-[[4-[[5-chloro-4-(1H-indol-3-yl)pyrimidin-2-yl]amino]-1-piperidyl]methyl]phenyl]-4-(dimethylamino)but-2-enamide]",< 500 nM,< 100 nM
"Nc1ccc(C(=O)N2[C@@H]3CC[C@H]2C[C@@H](Nc2ncc(Cl)c(-c4c[nH]c5ccccc45)n2)C3)cc1 [Compound 302, (4-aminophenyl)((1R,3R,5S)-3-(5-chloro-4-(1H-indol-3-yl)pyrimidin-2-ylamino)-8-aza-bicyclo[3.2.1]octan-8-yl)methanone]",500 to 5000 nM,> 1000 nM

# More lines, now with the values ahead:
IC50 [1],IC50 [2],Structure (SMILES)
< 500 nM,< 100 nM,"CNC/C=C/C(=O)Nc1ccc(CN2CCC(Nc3ncc(Cl)c(-c4c[nH]c5ccccc45)n3)CC2)cc1 [Compound 142, (E)-N-[4-[[4-[[5-chloro-4-(1H-indol-3-yl)pyrimidin-2-yl]amino]-1-piperidyl]methyl]phenyl]-4-(methylamino)but-2-enamide]"
< 500 nM,< 100 nM,"CN(C/C=C/C(=O)Nc1ccc(CN2CCC(Nc3ncc(Cl)c(-c4c[nH]c5ccccc45)n3)CC2)cc1)CC(O)CO (stereo not shown) [Compound 143, (E)-N-(4-((4-((5-chloro-4-(1H-indol-3-yl)pyrimidin-2-yl)amino)piperidin-1-yl)methyl)phenyl)-4-((2,3-dihydroxypropyl)(methyl)amino)but-2-enamide]"
< 500 nM,< 100 nM,"CN(C)C/C=C/C(=O)Nc1ccc(CN2CC[C@@H](Nc3ncc(Cl)c(-c4c[nH]c5ccccc45)n3)C2)cc1 [Compound 144, (R,E)-N-(4-((3-((5-chloro-4-(1H-indol-3-yl)pyrimidin-2-yl)amino)pyrrolidin-1-yl)methyl)phenyl)-4-(dimethylamino)but-2-enamide (E)-4-(dimethylamino)but-2-enoate]"
< 500 nM,< 100 nM,"CN(C)C/C=C/C(=O)N(C)c1cccc(CN2CCC(Nc3ncc(Cl)c(-c4c[nH]c5ccccc45)n3)CC2)c1 [Compound 145, (E)-N-[3-[[4-[[5-chloro-4-(1H-indol-3-yl)pyrimidin-2-yl]amino]-1-piperidyl]methyl]phenyl]-4-(dimethylamino)-N-methyl-but-2-enamide]"
> 5000 nM,< 100 nM,"CN(C/C=C/C(=O)Nc1ccc(CN2CCC(Nc3ncc(Cl)c(-c4c[nH]c5ccccc45)n3)CC2)cc1)CC(N)=O [Compound 146, (E)-4-((2-amino-2-oxoethyl)(methyl)amino)-N-(4-((4-((5-chloro-4-(1H-indol-3-yl)pyrimidin-2-yl)amino)piperidin-1-yl)methyl)phenyl)but-2-enamide]"
500 to 5000 nM,< 100 nM,"CN(C/C=C/C(=O)Nc1ccc(CN2CCC(Nc3ncc(Cl)c(-c4c[nH]c5ccccc45)n3)CC2)cc1)CC(=O)O [Compound 148, 2-[[(E)-4-[4-[[4-[[5-chloro-4-(1H-indol-3-yl)pyrimidin-2-yl]amino]-1-piperidyl]methyl]anilino]-4-oxo-but-2-enyl]-methyl-amino]acetic acid]"
500 to 5000 nM,100 to 1000 nM,"O=C(/C=C/CNC(=O)C(F)(F)F)Nc1ccc(CN2CCC(Nc3ncc(Cl)c(-c4c[nH]c5ccccc45)n3)CC2)cc1 [Compound 156, (E)-N-(4-((4-((5-chloro-4-(1H-indol-3-yl)pyrimidin-2-yl)amino)piperidin-1-yl)methyl)phenyl)-4-(2,2,2-trifluoroacetamido)but-2-enamide]"
500 to 5000 nM,< 100 nM,"NCCC(=O)Nc1cccc(Nc2ncc(Cl)c(-c3c[nH]c4ccccc34)n2)c1 [Compound 306, 3-amino-N-(3-(5-chloro-4-(1H-indol-3-yl)pyrimidin-2-ylamino)phenyl) propanamide.TFA]"
500 to 5000 nM,< 100 nM,"NCC(=O)Nc1cccc(Nc2ncc(Cl)c(-c3c[nH]c4ccccc34)n2)c1 [Compound 307, 2-amino-N-(3-(5-chloro-4-(1H-indol-3-yl)pyrimidin-2-ylamino)phenyl)acetamide.TFA]"
